We go through 1 sequence from patent US20110306554A1, “PEPTIDE CAPABLE OF BINDING TO IMMUNOGLOBULIN” (priority 2009, published 2011).

Entries after “also recorded” stand apart in the source; their conditions may differ.

The test system of assay [1] is Monoclonal antibody cocktail-induced arthritis mice. Description: Arthritis suppressing effects on arthritis-induced mice, Part 2. The format is in vivo. Particulars: 10 mg/kg intraperitoneal twice a day, 14 consecutive days from day 0. How it is done:
Monoclonal antibody cocktail-induced arthritis mice were used to examine arthritis suppressing effects of peptides which are indicated as R1, R2, and R5 in Example 2. Arthritis was caused by intravenous administration of 2 mg/mouse of an arthritis-inducing monoclonal antibody cocktail and three days later, intraperitoneal administration of 50 μg/mouse of LPS. The peptides were administered at a dose of 10 mg/kg twice a day for a period of 14 consecutive days from the day of administration of the arthritis-inducing monoclonal antibody cocktail (day 0), and arthritis suppressing effect was examined in terms of clinical score. Experiments were carried out in a similar way to those in the section (1) in Example 3.
The required amount was calculated for each peptide, based on the animal weight. Each peptide solution was prepared to make a concentration of 1 mg/ml in a 0.5% methyl cellulose solution, and the prepared peptide solution was cold stored.
Measurement of body weight of animals was made on days 0, 3, 6, 9, 12, and 14 during the study period, with day 0 being the day of administration of the arthritis-inducing monoclonal antibody cocktail. Observation of general condition was made on a daily basis.
Mice were weighed on the day prior to start of administration and randomly assigned to groups using a grouping software, so that the average body weight values of the groups were approximately equal. To twenty 7-week-old mice, the arthritis-inducing monoclonal antibody cocktail was intravenously administered at a dose of 2 mg/mouse on day 0, and LPS was intraperitoneally administered at a dose of 50 μg/mouse on day 3.
Each peptide solution was given via intraperitoneal administration twice a day, morning and afternoon, from day 0. As a control, a 0.5% solution of methyl cellulose was intraperitoneally administered twice a day from day 0. A needle (26G; Terumo) and a syringe (1.0-ml capacity; Terumo) were used for administration. […]
Results of examinations were expressed by mean value±standard error and analyzed using EXSAS (Version 7.1.6, Arm Systex Co., Ltd.). […]

Assay [2] concerns type III allergic (Arthus) reaction-induced rats. Description: Immune-complex disease suppression in type III allergic (Arthus) reaction-induced rats, Part 1. The format is in vivo. Particulars: intraperitoneal administration, 10 or 100 mg/kg. How it is done: Using sixty-four 7-week-old male Slc:Wistar rats, examinations were made on peptides R1, R2, and R5, in two series of examinations, each using a different method of administration (intraperitoneal administration and tail vein administration). Acclimation was carried out by giving normal solid chow CRF-1 for a period of 9 days or longer. The back of the animals was shaved on the day prior to administration, and a mixed solution of OVA and Evans blue dye was administered into the tail vein on the day of administration. Each peptide solution was administered intraperitoneally or into the tail vein 30 minutes or 50 minutes after the administration of the mixed solution of OVA and Evans blue dye, respectively. For intracutaneous administration of an anti-OVA solution, […] was intracutaneously administered in the back of animals at a dose of 0.1 ml/site 30 minutes or 10 minutes after the administration of the tested substance in the case of intraperitoneal or intravenous administration, respectively, so as to generate a local Arthus reaction. After the reaction was allowed to be generated for 4 hours, the animals were euthanized, the blood was removed thoroughly, and then the dorsal skin was exfoliated. The Arthus reaction sites on the exfoliated skin were punched out, and the Evans blue dye was extracted from the punched skin overnight. The amount of dye leakage was quantified by measuring absorbance for the Evans blue dye with a spectrophotometer and using a calibration curve (see, H. Okamoto, Y. Iwahisa, and M. Terasawa, “Suppression of the Arthus reaction by Y-24180, a potent and specific antagonist of platelet-activating factor”, Agents Actions, 35:149-158 (1992), for experimental procedures used in Example 4).
A predetermined amount of each peptide (peptides R1, R2, and R5) was dissolved in physiological saline to make a 20 mg/ml solution. A 2 mg/ml solution was prepared by diluting the 20 mg/ml solution 10-fold with physiological saline. A 5 mg/ml solution was prepared by dissolving each peptide in a predetermined amount in physiological saline to make a prepared solution.
A mixed solution of OVA and Evans blue dye was administered into the tail vein at a dose of 2 ml/kg. Each peptide solution was administered intraperitoneally or into the tail vein 30 minutes or 50 minutes after the administration of the mixed solution of OVA and Evans blue dye, respectively. For intracutaneous administration of an anti-OVA solution, […] was intracutaneously administered in the back of animals at a dose of 0.1 mL/site 30 minutes or 10 minutes after the administration of the tested substance in the case of intraperitoneal or intravenous administration, respectively, so as to generate a local Arthus reaction. Intracutaneous administration was conducted at 2 sites for PBS and at 2 sites for the anti-OVA solution per animal. After the reaction was allowed to be generated for 4 hours, the animals were euthanized by decapitation under ether anesthesia, the blood was removed thoroughly, and then the dorsal skin was exfoliated. The Arthus reaction sites on the exfoliated skin were punched out and subjected to dye extraction.
Several cuttings were made in the skin strips that were punched out with a punch. […] The amount of dye leakage was calculated from a calibration curve of known amounts of the dye.
The mean value (mean)±standard deviation (SD) for each group was calculated with body-weight measurements and amounts of dye leakage. […]

For the sequence “STGKFTCKVPGLYYF (Immunoglobulin binding peptide) [R5]”, the “arthritis suppressing effect (clinical score)” value in assay [1] is recorded as “Arthritis suppressing effects were observed; also recorded: arthritis was suppressed”. In addition, the “effect of immune-complex disease suppression (dye leakage)” value in assay [2] was “clear and satisfactory effects of immune-complex disease suppression; also recorded: suppressed”.
